Assay results taken from article PMC5817723, “^99mTc-HYNIC-(tricine/EDDA)-FROP peptide for MCF-7 breast tumor targeting and imaging” (Journal of Biomedical Science, 2018).
Entries after “also recorded” stand apart in the source; their conditions may differ. Residues, ends and D or L forms follow the SMILES beside them. *: point of attachment. HYNIC = NNc1ccc(C(=O)*)cn1

Legend:
[1] = In vitro stability in normal saline at room temperature; assay type: physicochemical; conditions: TLC, n = 3
Procedure: The radiochemical purity was determined by instant thin layer chromatography (ITLC) in different mobile phases such as methyl ethyl ketone (MEK), acetonitrile/water (50/50) and citrate solvent (0.1 M, pH 5.2) using a Lablogic mini scan TLC scanner (Sheffield, UK) and Laura image analysis software. In MEK, free ^99mTcO4^− migrated with the solvent front, while radiolabeled peptide remained at the application point. In the acetonitrile/water system, the colloids remained at the application point, while radiolabeled peptide migrated in front of solvent. The amount of labeled co-ligand was determined by citrate solvent, that free ^99mTcO4 Na and labeled co-ligand migrate in front of solvent while both RHT and labeled peptide (^99mTc-FROP) remind at the origin. A NaI (Tl) gamma detector (Delshid, Tehran, Iran) was used to for measurement of radioactivity.
(§1) The stability of ^99mTc-HYNIC-FROP in normal saline was evaluated using ITLC at various times (2, 4, 6 and 24 h) at room temperature. For serum stability, ^99mTc-HYNIC-FROP (30 μL) was incubated with freshly human plasma serum (90 μL) in triplicate at 37 °C. At 1 h of incubation, the plasma proteins were precipitated with a mixture of acetonitrile/ethanol (1:1 v/v) and centrifugation. The supernatant layer was filtered through a 0.22 μm filter and then the fraction was analyzed by RP-HPLC. Partition coefficient of ^99mTc-HYNIC-FROP was determined via method that previously was described.

[2] = Stability in human plasma serum, RP-HPLC; assay type: in vitro ADME; conditions: 37 °C, triplicate
Procedure: Reversed phase-HPLC was performed on a Knauer HPLC systems (Knauer HPLC, Berlin, Germany) using a Lablogic radioactivity gamma detector with a Eurospher 100–5 C-18, 4.6 × 250 mm (Knauer, Berlin, Germany) column with a pre-column. (Knauer HPLC, Berlin, Germany) HPLC was run using a gradient of 0.1% TFA in H2O (solvent A) and 0.1% TFA in CH3CN (solvent B) at a flow rate of 1 mL/min. A gradient with solvents A and B was run as follows: 0 min, 10% B; 0–10 min, 10–30% B; 10–20 min, 30–80% B; and 20–25 min, 80–100% B, for a total time of 30 min.
as §1

[3] = Partition coefficient between n-octanol and PBS; assay type: physicochemical; conditions: distribution between n-octanol and PBS; method of ref 22; mean ± SD; read-out: Log p (partition coefficient)
Procedure: as §1

[4] = system: MCF-7, A-549 SKOV-3, PC-3, T47D and HFFF2 cell lines; assay: Cellular uptake on different cell lines; assay type: cell-based, human; conditions: 40 nM, 37 °C, 1 h
Procedure: The cellular uptake studies of ^99mTc-HYNIC-(tricine/EDDA)-FROP were performed on MCF-7, A-549 SKOV-3, PC-3, T47D and HFFF2 cell lines. The cells (5 × 10^5) were seeded in 12-well plates overnight and incubated with ^99mTc-HYNIC-FROP (40 nM) at 37 °C for 1 h. Incubation of the samples was terminated by removing medium and washing with cold serum-free medium. Thereafter, the cells were detached by trypsin and the radioactivity in the cell suspension was quantified.

MCF-7 cells [5] = assay: In vitro specific binding (blocking) on MCF-7 cells; assay type: cell-based, human; conditions: pre-saturation 0.5 h at 37 °C with unlabeled FROP
Procedure: For specific binding experiment, the MCF-7 cells were saturated with 500-fold excess of unlabeled peptide prior adding of the ^99mTc-HYNIC-FROP to cells for 30 min.

MCF-7 cells [6] = assay: Internalization study in MCF-7 cells; assay type: cell-based, human; conditions: MCF-7, 40 nM, acid wash urea buffer pH 2.5
Procedure: For internalization experiment, MCF-7 cells (1 × 10^6 cells) were seeded on the single plates and incubated with ^99mTc-HYNIC-FROP (40 nM) at 4 °C. After 1 h incubation, medium was removed and cells were washed with ice-cold serum free medium. Then 1 mL complete medium was added to each dish and cells were further incubated for 0.5, 1, 2, 6 and 24 h at 37 °C. After incubation, medium was removed from cellular plate and then was washed once with cold serum free medium. Then supernatant was collected, and for removing radioactivity bound to the surface of the cells, the acid wash with urea buffer (pH 2.5) was used. The internalized radiolabeled peptide was recovered by solubilizing the cells with 1 M NaOH at 37 °C for 5 min, and the surface-bound (acid-wash) and internalized (acid-resistant) radioactivity were measured with the gamma counter.

MCF-7 cells [7] = assay: Saturation binding assay on MCF-7 cells; design: species or system human; conditions: saturation 30–250 nM, 30 min, nonlinear regression
Procedure: The cell-binding affinity of ^99mTc-HYNIC-FROP was assessed with saturation method. For determining of […] (Kd) and total number of binding sites (Bmax), ^99mTc-HYNIC-FROP was prepared in high radiochemical purity. MCF-7 cells were seeded into 24-well plates and incubated overnight. Then cells were incubated with various concentrations of radiolabeled peptide (30–250 nM) for 30 min. One dish was added blocking solution containing of 500-fold excess of highest concentration of ^99mTc-HYNIC-FROP. The cells were then washed with cold serum free medium to remove free radioactivity. The cells with bound radioactivity detached with trypsin and collected and radioactivity was measured. The (Kd) and (Bmax) value were calculated using Graphpad prism software based on specific binding of ^99mTc-HYNIC-FROP on MCF-7 cells.

[8] = system: MCF-7 tumor bearing mouse; assay: Planar gamma camera tumor imaging; assay type: in vivo; conditions: MCF-7 xenograft nude mouse, i.v., 15 min p.i.
Procedure: For gamma camera imaging, MCF-7 tumor bearing mouse was intravenously injected through the tail with ^99mTc-HYNIC-FROP. After 15 min p.i. the mouse immediately was anesthetized using ketamine/xylazine and whole-body dynamic imaging was conducted. The imaging was performed at the department of radiology at Mazandaran Hospital by a dual-head e.cam gamma camera (Siemens Medical Systems, Inc.), equipped with a low-energy, high-resolution collimator. The evaluation of the image was performed using an e-soft (Siemens Medical Systems).

[9] = 5 × 10^5 cells, cell-associated radioactivity
[10] = listed as 99mTc-HYNIC-(tricine/EDDA)-FROP

CSCC[C@H](NC(=O)[C@H](CC(C)C)NC(=O)[C@H](CCC(=O)O)NC(=O)[C@H](Cc1ccc(O)cc1)NC(=O)[C@H](CC(=O)O)NC(=O)[C@@H](N)CCC(=O)O)C(=O)N[C@@H](CC(=O)O)C(=O)N[C@@H](CC(C)C)C(=O)N[C@@H](CC(C)C)C(=O)N[C@@H](C)C(=O)N[C@@H](Cc1ccc(O)cc1)C(=O)N[C@@H](CC(C)C)C(=O)N[C@@H](CCCCNC(=O)c1ccc(NN)nc1)C(=O)O [^99mTc-HYNIC-FROP, metal not drawn] (H-EDYELMDLLAYLK(HYNIC)-OH)
%RCP in normal saline ([1]; 2 h): 99.5 ± 0.4%
%RCP in normal saline ([1]; 4 h): 99.1 ± 0.9%
%RCP in normal saline ([1]; 6 h): 99 ± 0.8%
%RCP in normal saline ([1]; 24 h): 94.6 ± 2.7%
stability in human plasma serum ([2]; 30 μL in 90 μL fresh human plasma serum, 1 h, RP-HPLC radiodetection): stable; also recorded: the major radioactivity was still associated with ^99mTc-FROP
remaining at 1 h ([2]; abstract statement, human plasma serum, protein precipitation acetonitrile/ethanol 1:1, RP-HPLC): ~98%
logD [3]: -2.03 ± 0.03
MCF-7/A-549 ratio of uptake [4, 9]: 8.2
MCF-7/PC-3 ratio of uptake [4, 9]: 2.3
MCF-7/SKOV-3 ratio of uptake [4, 9]: 8.8
MCF-7/T47D ratio of uptake [4, 9]: 4.5
MCF-7/HFFF2 ratio of uptake ([4]; HFFF2 = normal human fibroblast): 9.7
binding to MCF-7 cells with 500-fold excess of unlabeled peptide (FROP) (MCF-7 cells [5]): significant reduction
internalized radiolabeled peptide, % of the total radioactivity in the cells (MCF-7 cells [6]; 1 h at 4 °C then 30 min at 37 °C): 10.6 ± 0.8%
internalized radiolabeled peptide, % of the total radioactivity in the cells (MCF-7 cells [6]; 1 h at 4 °C then 6 h at 37 °C): 18.3 ± 2.3%
Bmax (maximum number of binding sites) (MCF-7 cells [7]; listed as 99mTc-HYNIC-(tricine-EDDA)-Lys-FROP): 4.5 ± 0.6 × 10^7 CPM/pMol
Bmax (maximum number of binding sites) (MCF-7 cells [7]; [10]): (4.5±0.6)·10^7 CPM/pMol
tumor visualization by planar gamma imaging [8]: tumor was clearly visualized
tumor visualization by planar gamma imaging [8, 10]: tumor was clearly visible
